From US20250313563A1, “GLYCOGEN SYNTHASE KINASE 3 INHIBITORS AND USES THEREOF” (The Broad Institute, Inc., priority 2022, published 2025)
Read-outs that look alike come from different tables or passages of the source.

Legend:
[1] = biological target: GSK3α (GST-full length GSK3α) (Homo sapiens (Human), UniProt P49840); assay: GSK3α TR-FRET kinase assay; assay type: biochemical; conditions: 1 nM GSK3α, 4 μM ATP, 30 minute preincubation, Table 16, read-out: GSK3-A TR-FRET BIOCHEMICAL (TR-FRET)
Method in brief: (§1)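 Compound preincubated 30 min, then 1 nM GST-full-length GSK3α or GSK3b run 100 min at ambient temperature with 200 nM biotinylated, S645-prephosphorylated glycogen synthase 631-650 peptide in Tris pH 7.5, MgCl2, DTT, BSA, 1% DMSO. ATP 4 μM (α) or 2 μM (β), or 1 mM. EDTA-quenched; Tb-anti-pSer641/streptavidin-d2 TR-FRET 665/615 ratio gave IC50.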

[2] = biological target: GSK3b (GST-full length GSK3b) (Homo sapiens (Human), UniProt P49841); assay: GSK3b TR-FRET kinase assay; assay type: biochemical; conditions: 1 nM GSK3b, 2 μM ATP, 30 minute preincubation, Table 16, read-out: GSK3-B TR-FRET BIOCHEMICAL (TR-FRET)
GSK3b (GST-full length GSK3b), sequence (P49841 whole entry): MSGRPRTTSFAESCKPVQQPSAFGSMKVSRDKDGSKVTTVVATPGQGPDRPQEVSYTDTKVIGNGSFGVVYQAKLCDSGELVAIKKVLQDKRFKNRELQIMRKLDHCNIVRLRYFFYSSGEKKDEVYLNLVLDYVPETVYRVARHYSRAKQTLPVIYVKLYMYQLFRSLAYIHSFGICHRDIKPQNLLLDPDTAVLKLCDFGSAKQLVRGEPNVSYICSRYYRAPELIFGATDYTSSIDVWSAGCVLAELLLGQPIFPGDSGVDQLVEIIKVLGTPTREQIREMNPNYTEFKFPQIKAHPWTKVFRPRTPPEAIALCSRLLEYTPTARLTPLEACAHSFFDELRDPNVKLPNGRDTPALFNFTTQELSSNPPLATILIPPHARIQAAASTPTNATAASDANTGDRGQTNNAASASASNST
Method in brief: as §1

GSK3α (GST-full length GSK3α), sequence (P49840 whole entry): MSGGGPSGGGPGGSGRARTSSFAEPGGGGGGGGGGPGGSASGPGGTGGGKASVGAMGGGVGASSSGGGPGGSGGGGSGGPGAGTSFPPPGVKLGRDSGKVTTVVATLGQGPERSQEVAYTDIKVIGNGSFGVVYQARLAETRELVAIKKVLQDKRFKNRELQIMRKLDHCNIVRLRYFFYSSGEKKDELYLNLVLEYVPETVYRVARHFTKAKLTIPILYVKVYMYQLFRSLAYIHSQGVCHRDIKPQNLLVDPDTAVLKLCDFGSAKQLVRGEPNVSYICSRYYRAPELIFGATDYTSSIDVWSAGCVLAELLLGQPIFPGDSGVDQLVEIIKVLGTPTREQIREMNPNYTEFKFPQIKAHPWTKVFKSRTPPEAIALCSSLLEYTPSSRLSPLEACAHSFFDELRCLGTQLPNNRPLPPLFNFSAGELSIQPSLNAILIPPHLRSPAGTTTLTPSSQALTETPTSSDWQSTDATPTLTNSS

| Compound | IC50 ([1]; IC50) [nM] | IC50 ([2]; IC50) [nM] | IC50 [1] [nM] | IC50 [2] [nM] |
| --- | --- | --- | --- | --- |
| CCC1(c2cccc(-c3ccncc3F)c2)C2=C(CC(C)(C)CC2=O)Nc2n[nH]cc21 (centres unmarked) [Compound 883986] | ≤ 100 | ≤ 100 | – | – |
| CCC1(c2cccc(-c3ccnc(C)c3)c2)C2=C(CC(C)(C)CC2=O)Nc2n[nH]c(C)c21 (centres unmarked) [Compound 883987] | ≤ 100 | 100 to 1000 | – | – |
| CCC1(c2cccc(-c3ccnc(C(F)(F)F)c3)c2)C2=C(CC(C)(C)CC2=O)Nc2n[nH]c(C)c21 (centres unmarked) [Compound 883989] | ≤ 100 | 100 to 1000 | – | – |
| CCC1(c2cccc(-c3ccnc(N(C)C)c3)c2)C2=C(CC(C)(C)CC2=O)Nc2n[nH]c(C)c21 (centres unmarked) [Compound 883990] | ≤ 100 | 100 to 1000 | – | – |
| CCC1(c2cccc(-c3ccncc3C)c2)C2=C(CC(C)(C)CC2=O)Nc2n[nH]c(C)c21 (centres unmarked) [Compound 883991] | ≤ 100 | ≤ 100 | – | – |
| CCC1(c2cccc(-c3ccnn3C)c2)C2=C(CC(C)(C)CC2=O)Nc2n[nH]c(C)c21 (centres unmarked) [Compound 883992] | ≤ 100 | ≤ 100 | – | – |
| CCC1(c2cccc(-c3cnn(C)c3C)c2)C2=C(CC(C)(C)CC2=O)Nc2n[nH]c(C)c21 (centres unmarked) [Compound 883993] | ≤ 100 | ≤ 100 | – | – |
| CCC1(c2cccc(-c3cn[nH]c3)c2)C2=C(CC(C)(C)CC2=O)Nc2n[nH]c(C)c21 (centres unmarked) [Compound 883994] | ≤ 100 | ≤ 100 | – | – |
| CCC1(c2cccc(-c3c(C)nn(C)c3C)c2)C2=C(CC(C)(C)CC2=O)Nc2n[nH]c(C)c21 (centres unmarked) [Compound 883995] | ≤ 100 | ≤ 100 | – | – |
| CCC1(c2cccc(-c3cnn(CCOC)c3)c2)C2=C(CC(C)(C)CC2=O)Nc2n[nH]c(C)c21 (centres unmarked) [Compound 883996] | ≤ 100 | 100 to 1000 | – | – |
| CCC1(c2cccc(-c3ccn(C)n3)c2)C2=C(CC(C)(C)CC2=O)Nc2n[nH]c(C)c21 (centres unmarked) [Compound 883999] | ≤ 100 | ≤ 100 | – | – |
| CCC1(c2cccc(-c3cncn3C)c2)C2=C(CC(C)(C)CC2=O)Nc2n[nH]c(C)c21 (centres unmarked) [Compound 884001] | ≤ 100 | ≤ 100 | – | – |
| CCC1(c2cccc(-c3cnn4c3CCCC4)c2)C2=C(CC(C)(C)CC2=O)Nc2n[nH]c(C)c21 (centres unmarked) [Compound 884002] | ≤ 100 | ≤ 100 | – | – |
| CCC1(c2cccc(-c3cn(C)nc3C)c2)C2=C(CC(C)(C)CC2=O)Nc2n[nH]c(C)c21 (centres unmarked) [Compound 884003] | ≤ 100 | ≤ 100 | – | – |
| CC1(C)CC(=O)C2=C(C1)Nc1n[nH]cc1[C@]21C[C@@H](n2cccn2)C1 [Compound 884004] | – | – | ≤ 100 | ≤ 100 |
| CC1(C)CC(=O)C2=C(C1)Nc1n[nH]cc1[C@]21C[C@H](n2cccn2)C1 [Compound 884005] | – | – | ≤ 100 | ≤ 100 |
| CC(C)[C@@H]1C[C@@]2(CCO1)C1=C(CC(C)(C)CC1=O)Nc1n[nH]cc12 [Compound 884013] | 1000 to 5000 | > 5000 | – | – |
| CC(C)[C@H]1C[C@]2(CCO1)C1=C(CC(C)(C)CC1=O)Nc1n[nH]cc12 [Compound 884014] | 1000 to 5000 | > 5000 | – | – |
| CC[C@]1(C)C2=C(CC(C)(C)CC2=O)Nc2n[nH]cc21 [Compound 884019] | 100 to 1000 | 1000 to 5000 | – | – |

More lines, now with the values ahead:

| IC50 ([1]; IC50) [nM] | IC50 ([2]; IC50) [nM] | IC50 [1] [nM] | IC50 [2] [nM] | Compound |
| --- | --- | --- | --- | --- |
| > 5000 | > 5000 | – | – | CC[C@]1(C)C2=C(CC(C)(C)CC2=O)Nc2n[nH]cc21 [Compound 884020] |
| – | – | 100 to 1000 | 100 to 1000 | CC1(C)CC(=O)C2=C(C1)Nc1n[nH]cc1[C@]21CCO[C@@H](C(F)(F)F)C1 [Compound 884021] |
| – | – | 100 to 1000 | 100 to 1000 | CC1(C)CC(=O)C2=C(C1)Nc1n[nH]cc1[C@@]21CCO[C@H](C(F)(F)F)C1 [Compound 884022] |
| 1000 to 5000 | > 5000 | – | – | CC1(C)CC(=O)C2=C(C1)Nc1n[nH]cc1[C@]21CCO[C@H](C(F)(F)F)C1 [Compound 884023] |
| 1000 to 5000 | > 5000 | – | – | CC1(C)CC(=O)C2=C(C1)Nc1n[nH]cc1[C@@]21CCO[C@@H](C(F)(F)F)C1 [Compound 884024] |
| – | – | ≤ 100 | 100 to 1000 | CC1(C)CCC2(CC1)C1=C(CC(C)(C)CC1=O)Nc1n[nH]cc12 [Compound 884107] |
| ≤ 100 | ≤ 100 | – | – | CCN(C(C)=O)c1cccc(C2(CC)C3=C(CC(C)(C)CC3=O)Nc3n[nH]cc32)c1 (centres unmarked) [Compound 884109] |
| ≤ 100 | ≤ 100 | – | – | CCC1(c2cccc(N(Cc3ccccc3)C(C)=O)c2)C2=C(CC(C)(C)CC2=O)Nc2n[nH]cc21 (centres unmarked) [Compound 884110] |
| 1000 to 5000 | > 5000 | – | – | O=C1CCCC2=C1C1(CCOCC1)c1c[nH]nc1N2 [Compound 884111] |
